Results from patent US20090252013A1, “HYDRAZIDE CHELATE COMPLEX COMPOUND, OPTICAL RECORDING MEDIUM USING THE COMPOUND AND RECORDING METHOD THEREOF” (Mitsubishi Chemical Corporation, priority 2006, published 2009).

Columns and labels:
[1] = Solubility test in coating solvent (2,2,3,3-tetrafluoropropanol); format: physicochemical; settings: 20° C., result in words
Method: The dissolution is determined by whether or not residual crystals of the compound remain in the solvent when the compound and TFP are mixed with a predetermined concentration.
Then, the solution was dropped to filter paper (“No. 5C” quantitative filter paper manufactured by Toyo Roshi Kaisha), and dried at room temperature for 24 hours. It was visually observed whether or not crystal residues of undissolved components were present on the filter paper.

[2] = Light fastness test (xenon lamp) of dye recording layer; format: physicochemical; settings: xenon lamp 0.55 W/m^2, 40 hours, 58° C., humidity 50%, absorbance at absorption maximum
Method: First, a solution containing a hydrazide chelate complex compound is applied over a substrate such that the film thickness after drying is about 50 nm, followed by drying, thus obtaining a layer containing the hydrazide chelate complex compound. The layer containing the resulting dye is irradiated with a xenon lamp (intensity 0.55 W/m^2) for a predetermined period of time under conditions at a temperature of 58° C. and a humidity of 50%. The absorbances at the absorption maximum wavelength before and after the irradiation are compared to obtain the dye residual ratio.
The resulting compound (A-6) was dissolved in 2,2,3,3-tetrafluoropropanol at a concentration of 1.0% by weight, and minute foreign particles were removed by filtration. Then, the resulting solution was dropped to an injection-molded polycarbonate substrate with a diameter of 120 mm and a thickness of 1.2 mm and coating was performed by spin coating (4,900 rpm), followed by drying at 80° C. for 30 minutes. […]
Under the conditions of temperature 58° C. and humidity 50%, a recording layer was irradiated with a xenon lamp at an irradiation intensity of 0.55 W/m^2 for 40 hours. Then, the dye residual ratio in the recording layer was determined on the basis of the absorbances before and after irradiation at the absorption maximum wavelength.

| Structure (SMILES) | solubility in a coating solvent at a concentration of 0.7% by weight [1] | solubility in a coating solvent at a concentration of 1.0% by weight [1] | dye residual ratio (after 40-hour light fastness test) [2] |
| --- | --- | --- | --- |
| CN1C(=CC=[N+]2N=C(c3ccccc3)[O][Cu-2]23[O]C(c2ccccc2)=N[N+]3=CC=C2N(C)c3ccccc3C2(C)C)C(C)(C)c2ccccc21 (centres unmarked) [Compound A-2] | completely dissolved | the amount of insolubles was slight |  |
| CCOC(=O)CC1=N[N+](=CC=C2N(C)c3ccccc3C2(C)C)[Co-2]2([O]1)[O]C(CC(=O)OCC)=N[N+]2=CC=C1N(C)c2ccccc2C1(C)C (centres unmarked) [Compound A-6] | completely dissolved | completely dissolved | 90% |
| CCOC(=O)CC1=N[N+](=CC=C2N(CC)c3ccccc3C2(C)Cc2ccccc2)[Co-2]2([O]1)[O]C(CC(=O)OCC)=N[N+]2=CC=C1N(CC)c2ccccc2C1(C)Cc1ccccc1 (centres unmarked) [Compound A-11] | completely dissolved | completely dissolved | 91% |
| CCN1C(=CC=[N+]2N=C(c3ccccc3)[O][Co-2]23[O]C(c2ccccc2)=N[N+]3=CC=C2N(CC)c3ccc(OC)cc3C2(C)C)C(C)(C)c2cc(OC)ccc21 (centres unmarked) [Compound A-86] | completely dissolved | completely dissolved |  |
| CCN1C(=CC=[N+]2N=C(c3cccc(OC)c3)[O][Co-2]23[O]C(c2cccc(OC)c2)=N[N+]3=CC=C2N(CC)c3ccc(OC)cc3C2(C)C)C(C)(C)c2cc(OC)ccc21 (centres unmarked) [Compound A-87] | completely dissolved | completely dissolved |  |
| CCOc1ccccc1C1=N[N+](=CC=C2N(CC)c3c(ccc4ccccc34)C2(C)C)[Co-2]2([O]1)[O]C(c1ccccc1OCC)=N[N+]2=CC=C1N(CC)c2c(ccc3ccccc23)C1(C)C (centres unmarked) [Compound A-88] | completely dissolved | completely dissolved |  |
| CCN1C(=CC=[N+]2N=C(c3ccccc3OC)[O][Co-2]23[O]C(c2ccccc2OC)=N[N+]3=CC=C2N(CC)c3ccc(OC)cc3C2(C)Cc2ccccc2)C(C)(Cc2ccccc2)c2cc(OC)ccc21 (centres unmarked) [Compound A-150] | completely dissolved | completely dissolved |  |
| CCN1C(=CC=[N+]2N=C(c3ccc(C(=O)OC)cc3)[O][Co-2]23[O]C(c2ccc(C(=O)OC)cc2)=N[N+]3=CC=C2N(CC)c3ccc(OC)cc3C2(C)Cc2cccc(F)c2)C(C)(Cc2cccc(F)c2)c2cc(OC)ccc21 (centres unmarked) [Compound A-152] | completely dissolved | completely dissolved |  |
| CCN(CC)C(=O)c1ccc(C2=N[N+](=CC=C3N(CC)c4ccc(OC)cc4C3(C)Cc3ccccc3)[Co-2]3([O]2)[O]C(c2ccc(C(=O)N(CC)CC)cc2)=N[N+]3=CC=C2N(CC)c3ccc(OC)cc3C2(C)Cc2ccccc2)cc1 (centres unmarked) [Compound A-159] | completely dissolved | completely dissolved |  |
| CCN1C(=CC=[N+]2N=C(c3ccc(C(=O)OC)cc3)[O][Co-2]23[O]C(c2ccc(C(=O)OC)cc2)=N[N+]3=CC=C2N(CC)c3ccc(OC)cc3C2(C)Cc2ccccc2)C(C)(Cc2ccccc2)c2cc(OC)ccc21 (centres unmarked) [Compound A-186] | completely dissolved | completely dissolved |  |
| CCCN(CCC)S(=O)(=O)c1ccc(C2=N[N+](=CC=C3N(CC)c4ccc(OC)cc4C3(C)Cc3ccccc3)[Co-2]3([O]2)[O]C(c2ccc(S(=O)(=O)N(CCC)CCC)cc2)=N[N+]3=CC=C2N(CC)c3ccc(OC)cc3C2(C)Cc2ccccc2)cc1 (centres unmarked) [Compound A-211] | completely dissolved | completely dissolved |  |
| CCN1C(=CC=[N+]2N=C(c3cccc(OCCOC)c3)[O][Co-2]23[O]C(c2cccc(OCCOC)c2)=N[N+]3=CC=C2N(CC)c3ccc(OC)cc3C2(C)Cc2ccccc2)C(C)(Cc2ccccc2)c2cc(OC)ccc21 (centres unmarked) [Compound A-212] | completely dissolved | completely dissolved |  |
| CN(C)c1ccc(C2=N/[N+](=C/c3ccccn3)[Co-2]3([O]2)[O]C(c2ccc(N(C)C)cc2)=N/[N+]3=C/c2ccccn2)cc1 [Compound B-4, reference compound] | the amount of insolubles was large | the amount of insolubles was large |  |
| [CH2-][N+]1=C\c2n(C)c3ccccc3[n+]2[Co-3]23([O]C(c4ccc(N(C)C)cc4)=N[N+]2=Cc2n(C)c4ccccc4[n+]23)[O]/C(c2ccc(N(C)C)cc2)=N\1 [Compound B-5, reference compound] | the amount of insolubles was large | the amount of insolubles was large |  |
| [CH2-][N+](=C\C=C\c1ccc(N(CC)CC)cc1)/N=C(\[O][Co-]1[O]C(c2c(C)cc(C)cc2C)=N/[N+]1=C/C=C/c1ccc(N(CC)CC)cc1)c1c(C)cc(C)cc1C [Compound B-6, reference compound] | the amount of insolubles was large | the amount of insolubles was large |  |
